Measurements as given in patent US11203563B2, “Preparation of zinc linolenate, and application of zinc linolenate in preparing anti-helicobacter pylori drug” (NANJING MEDICAL UNIVERSITY, priority 2018, dated 2021).

Key:
[1] = tested on: Proteus mirabilis (YF163006); experiment: MIC by microdilution method, non-Helicobacter pylori bacteria; format: cell-based; set-up: key: +: Bacterial growth; −: No bacterial growth; details: 72 h
Procedure: (§1) 2.2 Detection of minimum inhibitory concentration (MIC, 100 µL system) of zinc linolenate for non-Helicobacter pylori bacteria by microdilution method
(§2) (1) Zinc linolenate (2 mg/mL) is prepared.
(§3) (3) Bacterial solution preparation: the non-Helicobacter pylori grown in a log phase on a solid plate is taken to make a bacterial suspension with a BHI culture medium, the absorbance (OD600) is adjusted to 0.3 (1×10^8 CFU/mL), and the bacterial suspension is diluted 100 times to 1×10^6 CFU/mL for use.
(§4) (4) Inoculation of bacterial solution: 10 μL of bacterial solution above is taken and added to the 1-8th wells (the concentration of the bacterial solution per well is about 1.0×10^5 CFU/mL). Culture is performed for 72 h to judge the result. The drug concentrations of the first-seventh wells are 128, 64, 32, 16, 8, 4, and 2 μg/mL, respectively.
(§5) The experiment only makes sense when the bacteria obviously grow in the 8th well, i.e. the positive control well (without antibiotics). When a single drift occurs in the microdilution method, the maximum drug concentration that inhibits bacterial growth should be recorded. If there are multiple drifts, the results should not be reported and the experiment should be repeated. The experiment is repeated 3 times for each drug.

Morganella morganii = experiment: as above; format: cell-based; set-up: key: +: Bacterial growth; −: No bacterial growth; details: 72 h
Procedure: as §1, §2, §3, §4, §5

[2] = tested on: Streptococcus pneumoniae (ATCC49619); experiment: as above; format: cell-based; set-up: key: +: Bacterial growth; −: No bacterial growth; details: 72 h
Procedure: as §1, §2, §3, §4, §5

[3] = tested on: Enterococcus faecium (ATCC19434); experiment: as above; format: cell-based; set-up: key: +: Bacterial growth; −: No bacterial growth; details: 72 h
Procedure: as §1, §2, §3, §4, §5

[4] = tested on: Escherichia coli (MG1655); experiment: as above; format: cell-based; set-up: key: +: Bacterial growth; −: No bacterial growth; details: 72 h
Procedure: as §1, §2, §3, §4, §5

Bacillus subtilis (168) = experiment: as above; format: cell-based; set-up: key: +: Bacterial growth; −: No bacterial growth; details: 72 h
Procedure: as §1, §2, §3, §4, §5

Bacillus cereus = experiment: as above; format: cell-based; set-up: key: +: Bacterial growth; −: No bacterial growth; details: 72 h
Procedure: as §1, §2, §3, §4, §5

Listeria = experiment: as above; format: cell-based; set-up: key: +: Bacterial growth; −: No bacterial growth; details: 72 h
Procedure: as §1, §2, §3, §4, §5

[5] = tested on: Stenotrophomonas maltophilia; experiment: as above; format: cell-based; set-up: key: +: Bacterial growth; −: No bacterial growth; details: 72 h
Procedure: as §1, §2, §3, §4, §5

[6] = tested on: Mycobacterium smegmatis (MC^2 155); experiment: as above; format: cell-based; set-up: key: +: Bacterial growth; −: No bacterial growth; details: 72 h
Procedure: as §1, §2, §3, §4, §5

[7] = tested on: Enterococcus faecalis (ATCC19434); experiment: as above; format: cell-based; set-up: key: +: Bacterial growth; −: No bacterial growth; details: 72 h
Procedure: as §1, §2, §3, §4, §5

[8] = Blood biochemical indexes of liver and kidney functions, infected and treated mice; details: infected mice, therapeutic dose (omeprazole 138.2, amoxicillin 28.5, clarithromycin 14.3, zinc linolenate 24 mg/kg), intragastric, serum
Procedure: (2) Animal administration: the experimental group is intragastrically administered. The group with omeprazole is administered with omeprazole first, and then administered with other drugs 30 min later. After the mice are administered with the drugs, the mice fast for 4 hours. Calculated according to an average of 20 g/mouse of the weight of mice, the dosage is: omeprazole 138.2 mg/kg, amoxicillin 28.5 mg/kg, clarithromycin 14.3 mg/kg, and zinc linolenate 24 mg/kg, once a day for 5 consecutive times. The negative control group is administered with a PBS solution with the same dosage and number of times as above.
(3) Efficacy test: the mice in the infection group are weighed and the average weight is calculated on the 2 days after the drug is stopped. Blood is taken from the eyeballs and the mice are sacrificed by cervical dislocation. Stomach tissue is taken, and the isolation, culture and identification of Helicobacter pylori are the same as in 2.3.3 (3) and (4).
(4) Efficacy test: the mice in the infection group are weighed 3 days after the drug is stopped, and the average weight is calculated. Blood is taken from the eyeballs, and the mice are sacrificed by cervical dislocation. Stomach, kidney, liver and spleen tissues are taken, pathologically sectioned and HE stained, and serum is tested for liver and kidney functions.

Q: For CC/C=C\C/C=C\C/C=C\CCCCCCCC(=O)[O-].CC/C=C\C/C=C\C/C=C\CCCCCCCC(=O)[O-].[Zn+2] [zinc linolenate], which Bacterial growth ([1]; zinc linolenate 2 μg/ml) is on record?
A: Its Bacterial growth is “+”.

Q: What about the Bacterial growth ([1]; zinc linolenate 4 μg/ml) of the same molecule?
A: Its Bacterial growth is “+”.

Q: And the Bacterial growth ([1]; zinc linolenate 8 μg/ml)?
A: The Bacterial growth was “+”.

Q: What about the Bacterial growth ([1]; zinc linolenate 16 μg/ml) of the same molecule?
A: The Bacterial growth was “+”.

Q: And the Bacterial growth ([1]; zinc linolenate 32 μg/ml)?
A: The Bacterial growth was “+”.

Q: And the Bacterial growth ([1]; zinc linolenate 64 μg/ml)?
A: Its Bacterial growth is “+”.

Q: And the Bacterial growth ([1]; zinc linolenate 128 μg/ml)?
A: Its Bacterial growth is “+”.

Q: What about the Bacterial growth (Morganella morganii; zinc linolenate 2 μg/ml) of the same molecule?
A: Its Bacterial growth is “+”.

Q: And the Bacterial growth (Morganella morganii; zinc linolenate 4 μg/ml)?
A: Its Bacterial growth is “+”.

Q: And the Bacterial growth (Morganella morganii; zinc linolenate 8 μg/ml)?
A: Its Bacterial growth is “+”.

Q: And the Bacterial growth (Morganella morganii; zinc linolenate 16 μg/ml)?
A: The Bacterial growth was “+”.

Q: And the Bacterial growth (Morganella morganii; zinc linolenate 32 μg/ml)?
A: The Bacterial growth was “+”.

Q: And the Bacterial growth (Morganella morganii; zinc linolenate 64 μg/ml)?
A: The Bacterial growth was “+”.

Q: And the Bacterial growth (Morganella morganii; zinc linolenate 128 μg/ml)?
A: Its Bacterial growth is “−”.

Q: And the Bacterial growth ([2]; zinc linolenate 2 μg/ml)?
A: The Bacterial growth was “+”.

Q: What about the Bacterial growth ([2]; zinc linolenate 4 μg/ml) of the same molecule?
A: The Bacterial growth was “+”.

Q: And the Bacterial growth ([2]; zinc linolenate 8 μg/ml)?
A: The Bacterial growth was “+”.

Q: And the Bacterial growth ([2]; zinc linolenate 16 μg/ml)?
A: The Bacterial growth was “+”.

Q: And the Bacterial growth ([2]; zinc linolenate 32 μg/ml)?
A: Its Bacterial growth is “+”.

Q: And the Bacterial growth ([2]; zinc linolenate 64 μg/ml)?
A: The Bacterial growth was “+”.

Q: What about the Bacterial growth ([2]; zinc linolenate 128 μg/ml) of the same molecule?
A: Its Bacterial growth is “+”.

Q: And the Bacterial growth ([3]; zinc linolenate 2 μg/ml)?
A: The Bacterial growth was “+”.

Q: What about the Bacterial growth ([3]; zinc linolenate 4 μg/ml) of the same molecule?
A: Its Bacterial growth is “+”.

Q: And the Bacterial growth ([3]; zinc linolenate 8 μg/ml)?
A: The Bacterial growth was “+”.

Q: What about the Bacterial growth ([3]; zinc linolenate 16 μg/ml) of the same molecule?
A: Its Bacterial growth is “+”.

Q: And the Bacterial growth ([3]; zinc linolenate 32 μg/ml)?
A: The Bacterial growth was “+”.

Q: And the Bacterial growth ([3]; zinc linolenate 64 μg/ml)?
A: Its Bacterial growth is “+”.

Q: And the Bacterial growth ([3]; zinc linolenate 128 μg/ml)?
A: Its Bacterial growth is “+”.

Q: And the Bacterial growth ([4]; zinc linolenate 2 μg/ml)?
A: Its Bacterial growth is “+”.

Q: And the Bacterial growth ([4]; zinc linolenate 4 μg/ml)?
A: Its Bacterial growth is “+”.

Q: What about the Bacterial growth ([4]; zinc linolenate 8 μg/ml) of the same molecule?
A: Its Bacterial growth is “+”.

Q: And the Bacterial growth ([4]; zinc linolenate 16 μg/ml)?
A: Its Bacterial growth is “+”.

Q: What about the Bacterial growth ([4]; zinc linolenate 32 μg/ml) of the same molecule?
A: The Bacterial growth was “+”.

Q: And the Bacterial growth ([4]; zinc linolenate 64 μg/ml)?
A: The Bacterial growth was “+”.

Q: And the Bacterial growth ([4]; zinc linolenate 128 μg/ml)?
A: The Bacterial growth was “−”.

Q: What about the Bacterial growth (Bacillus subtilis (168); zinc linolenate 2 μg/ml) of the same molecule?
A: The Bacterial growth was “+”.

Q: What about the Bacterial growth (Bacillus subtilis (168); zinc linolenate 4 μg/ml) of the same molecule?
A: Its Bacterial growth is “+”.

Q: What about the Bacterial growth (Bacillus subtilis (168); zinc linolenate 8 μg/ml) of the same molecule?
A: The Bacterial growth was “+”.

Q: And the Bacterial growth (Bacillus subtilis (168); zinc linolenate 16 μg/ml)?
A: Its Bacterial growth is “+”.

Q: And the Bacterial growth (Bacillus subtilis (168); zinc linolenate 32 μg/ml)?
A: Its Bacterial growth is “+”.

Q: What about the Bacterial growth (Bacillus subtilis (168); zinc linolenate 64 μg/ml) of the same molecule?
A: The Bacterial growth was “+”.

Q: And the Bacterial growth (Bacillus subtilis (168); zinc linolenate 128 μg/ml)?
A: Its Bacterial growth is “+”.

Q: And the Bacterial growth (Bacillus cereus; zinc linolenate 2 μg/ml)?
A: Its Bacterial growth is “+”.

Q: What about the Bacterial growth (Bacillus cereus; zinc linolenate 4 μg/ml) of the same molecule?
A: Its Bacterial growth is “+”.

Q: What about the Bacterial growth (Bacillus cereus; zinc linolenate 8 μg/ml) of the same molecule?
A: The Bacterial growth was “+”.

Q: What about the Bacterial growth (Bacillus cereus; zinc linolenate 16 μg/ml) of the same molecule?
A: The Bacterial growth was “+”.

Q: What about the Bacterial growth (Bacillus cereus; zinc linolenate 32 μg/ml) of the same molecule?
A: Its Bacterial growth is “+”.

Q: And the Bacterial growth (Bacillus cereus; zinc linolenate 64 μg/ml)?
A: The Bacterial growth was “+”.

Q: And the Bacterial growth (Bacillus cereus; zinc linolenate 128 μg/ml)?
A: The Bacterial growth was “+”.

Q: What about the Bacterial growth (Listeria; zinc linolenate 2 μg/ml) of the same molecule?
A: Its Bacterial growth is “+”.

Q: What about the Bacterial growth (Listeria; zinc linolenate 4 μg/ml) of the same molecule?
A: Its Bacterial growth is “+”.

Q: What about the Bacterial growth (Listeria; zinc linolenate 8 μg/ml) of the same molecule?
A: The Bacterial growth was “+”.

Q: What about the Bacterial growth (Listeria; zinc linolenate 16 μg/ml) of the same molecule?
A: Its Bacterial growth is “+”.

Q: And the Bacterial growth (Listeria; zinc linolenate 32 μg/ml)?
A: The Bacterial growth was “+”.

Q: What about the Bacterial growth (Listeria; zinc linolenate 64 μg/ml) of the same molecule?
A: The Bacterial growth was “+”.

Q: What about the Bacterial growth (Listeria; zinc linolenate 128 μg/ml) of the same molecule?
A: The Bacterial growth was “+”.

Q: And the Bacterial growth ([5]; zinc linolenate 2 μg/ml)?
A: Its Bacterial growth is “+”.

Q: What about the Bacterial growth ([5]; zinc linolenate 4 μg/ml) of the same molecule?
A: Its Bacterial growth is “+”.

Q: And the Bacterial growth ([5]; zinc linolenate 8 μg/ml)?
A: Its Bacterial growth is “+”.

Q: What about the Bacterial growth ([5]; zinc linolenate 16 μg/ml) of the same molecule?
A: The Bacterial growth was “+”.

Q: What about the Bacterial growth ([5]; zinc linolenate 32 μg/ml) of the same molecule?
A: The Bacterial growth was “+”.

Q: What about the Bacterial growth ([5]; zinc linolenate 64 μg/ml) of the same molecule?
A: Its Bacterial growth is “+”.

Q: And the Bacterial growth ([5]; zinc linolenate 128 μg/ml)?
A: The Bacterial growth was “−”.

Q: What about the Bacterial growth ([6]; zinc linolenate 2 μg/ml) of the same molecule?
A: The Bacterial growth was “+”.

Q: What about the Bacterial growth ([6]; zinc linolenate 4 μg/ml) of the same molecule?
A: The Bacterial growth was “+”.

Q: And the Bacterial growth ([6]; zinc linolenate 8 μg/ml)?
A: Its Bacterial growth is “+”.

Q: What about the Bacterial growth ([6]; zinc linolenate 16 μg/ml) of the same molecule?
A: The Bacterial growth was “+”.

Q: And the Bacterial growth ([6]; zinc linolenate 32 μg/ml)?
A: The Bacterial growth was “+”.

Q: What about the Bacterial growth ([6]; zinc linolenate 64 μg/ml) of the same molecule?
A: Its Bacterial growth is “+”.

Q: What about the Bacterial growth ([6]; zinc linolenate 128 μg/ml) of the same molecule?
A: The Bacterial growth was “+”.

Q: What about the Bacterial growth ([7]; zinc linolenate 2 μg/ml) of the same molecule?
A: Its Bacterial growth is “+”.

Q: And the Bacterial growth ([7]; zinc linolenate 4 μg/ml)?
A: Its Bacterial growth is “+”.

Q: What about the Bacterial growth ([7]; zinc linolenate 8 μg/ml) of the same molecule?
A: The Bacterial growth was “+”.

Q: What about the Bacterial growth ([7]; zinc linolenate 16 μg/ml) of the same molecule?
A: The Bacterial growth was “+”.

Q: What about the Bacterial growth ([7]; zinc linolenate 32 μg/ml) of the same molecule?
A: Its Bacterial growth is “+”.

Q: What about the Bacterial growth ([7]; zinc linolenate 64 μg/ml) of the same molecule?
A: Its Bacterial growth is “+”.

Q: What about the Bacterial growth ([7]; zinc linolenate 128 μg/ml) of the same molecule?
A: The Bacterial growth was “−”.

Q: What about the Alanine aminotransferase [8] of the same molecule?
A: The Alanine aminotransferase was 50.00 U/L.

Q: What about the Aspartate aminotransferase [8] of the same molecule?
A: The Aspartate aminotransferase was 192.33 U/L.

Q: And the Blood urea nitrogen [8]?
A: The Blood urea nitrogen was 14.97 mmol/L.

Q: And the Creatinine [8]?
A: Its Creatinine is 18.33 µmol/L.
